ChEMBL document CHEMBL1150977, “A quantitative analysis of kinase inhibitor selectivity” (Nat Biotechnol, 2008)

How the values were obtained:
[1] = target: cAMP-dependent protein kinase catalytic subunit alpha (Homo sapiens, UniProt P17612)
[2] = target: T1, Serine/threonine-protein kinase RIO3 (Homo sapiens, UniProt O14730)
T1 sequence (O14730 whole entry): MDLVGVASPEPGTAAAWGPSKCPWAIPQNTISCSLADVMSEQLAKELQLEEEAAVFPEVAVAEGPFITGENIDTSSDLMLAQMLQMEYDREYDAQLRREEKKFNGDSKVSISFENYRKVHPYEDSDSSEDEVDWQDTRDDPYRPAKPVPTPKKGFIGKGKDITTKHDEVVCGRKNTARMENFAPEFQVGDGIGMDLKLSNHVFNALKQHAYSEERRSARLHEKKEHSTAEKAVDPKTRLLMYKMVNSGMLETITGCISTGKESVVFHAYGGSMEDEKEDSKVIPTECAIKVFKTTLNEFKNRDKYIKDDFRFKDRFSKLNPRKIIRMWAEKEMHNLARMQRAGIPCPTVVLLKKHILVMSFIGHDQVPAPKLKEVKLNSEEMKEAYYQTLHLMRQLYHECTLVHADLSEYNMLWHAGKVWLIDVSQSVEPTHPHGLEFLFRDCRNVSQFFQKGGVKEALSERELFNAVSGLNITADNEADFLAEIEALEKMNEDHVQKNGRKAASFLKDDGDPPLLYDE

[3] = target: T2, NUAK family SNF1-like kinase 2 (Homo sapiens, UniProt Q9H093)
T2 sequence (Q9H093 whole entry): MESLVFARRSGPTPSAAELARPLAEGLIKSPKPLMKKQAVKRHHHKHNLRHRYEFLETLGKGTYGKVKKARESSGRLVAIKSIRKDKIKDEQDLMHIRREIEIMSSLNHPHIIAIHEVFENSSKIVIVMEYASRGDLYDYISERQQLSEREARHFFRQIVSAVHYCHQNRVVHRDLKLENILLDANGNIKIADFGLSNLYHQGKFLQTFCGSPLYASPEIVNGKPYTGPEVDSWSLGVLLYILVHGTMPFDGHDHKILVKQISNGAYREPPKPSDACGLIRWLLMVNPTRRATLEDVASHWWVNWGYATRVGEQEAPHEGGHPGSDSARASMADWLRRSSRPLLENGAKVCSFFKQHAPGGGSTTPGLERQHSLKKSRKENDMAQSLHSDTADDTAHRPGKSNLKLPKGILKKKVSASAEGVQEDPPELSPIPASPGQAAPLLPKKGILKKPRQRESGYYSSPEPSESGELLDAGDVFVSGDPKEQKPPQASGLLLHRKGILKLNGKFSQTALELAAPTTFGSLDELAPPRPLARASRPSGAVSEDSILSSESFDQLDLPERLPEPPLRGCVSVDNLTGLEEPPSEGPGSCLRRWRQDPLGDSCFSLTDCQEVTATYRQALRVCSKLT

[4] = target: Tyrosine-protein kinase CSK (Homo sapiens, UniProt P41240)
[5] = target: T3, Serine/threonine-protein kinase DCLK2 (Homo sapiens, UniProt Q8N568)
T3 sequence (Q8N568 whole entry): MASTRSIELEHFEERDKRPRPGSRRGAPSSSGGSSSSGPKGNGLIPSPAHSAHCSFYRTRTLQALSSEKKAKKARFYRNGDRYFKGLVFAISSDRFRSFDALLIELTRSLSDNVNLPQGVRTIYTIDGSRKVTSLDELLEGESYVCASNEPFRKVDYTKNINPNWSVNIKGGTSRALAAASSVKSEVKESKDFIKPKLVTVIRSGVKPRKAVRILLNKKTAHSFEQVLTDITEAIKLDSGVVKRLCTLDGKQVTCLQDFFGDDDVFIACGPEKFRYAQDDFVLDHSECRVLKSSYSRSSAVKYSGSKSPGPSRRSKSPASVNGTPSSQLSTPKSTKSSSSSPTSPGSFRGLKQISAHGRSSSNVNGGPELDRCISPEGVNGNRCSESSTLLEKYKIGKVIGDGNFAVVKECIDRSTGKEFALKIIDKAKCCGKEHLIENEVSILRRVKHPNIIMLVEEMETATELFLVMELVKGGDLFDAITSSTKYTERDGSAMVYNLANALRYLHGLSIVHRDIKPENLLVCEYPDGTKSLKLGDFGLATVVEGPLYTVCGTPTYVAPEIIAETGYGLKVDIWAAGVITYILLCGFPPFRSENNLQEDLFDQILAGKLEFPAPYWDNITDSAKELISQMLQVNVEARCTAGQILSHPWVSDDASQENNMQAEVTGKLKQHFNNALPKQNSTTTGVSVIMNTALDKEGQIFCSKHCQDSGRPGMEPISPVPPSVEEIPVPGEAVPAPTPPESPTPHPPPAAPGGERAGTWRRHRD

[6] = target: Tyrosine-protein kinase Blk (Homo sapiens, UniProt P51451)
[7] = target: Tyrosine-protein kinase SYK (Homo sapiens, UniProt P43405)
[8] = target: Cyclin-dependent kinase 14 (Homo sapiens, UniProt O94921)
[9] = target: Phosphorylase b kinase gamma catalytic chain, skeletal muscle/heart isoform (Homo sapiens, UniProt Q16816)
Phosphorylase b kinase gamma catalytic chain, skeletal muscle/heart isoform, sequence (Q16816 whole entry, canonical isoform): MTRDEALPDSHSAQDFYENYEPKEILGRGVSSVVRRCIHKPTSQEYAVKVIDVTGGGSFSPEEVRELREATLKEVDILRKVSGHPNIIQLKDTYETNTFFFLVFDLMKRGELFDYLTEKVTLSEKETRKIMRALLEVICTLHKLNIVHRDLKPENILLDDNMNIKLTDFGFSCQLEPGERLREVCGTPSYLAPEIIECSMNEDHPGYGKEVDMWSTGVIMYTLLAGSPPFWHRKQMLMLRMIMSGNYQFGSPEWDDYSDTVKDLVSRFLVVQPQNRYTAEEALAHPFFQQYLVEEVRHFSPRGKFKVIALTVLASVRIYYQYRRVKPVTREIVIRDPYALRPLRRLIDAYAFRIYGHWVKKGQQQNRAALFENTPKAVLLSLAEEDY

Tyrosine-protein kinase Blk, sequence (P51451 whole entry): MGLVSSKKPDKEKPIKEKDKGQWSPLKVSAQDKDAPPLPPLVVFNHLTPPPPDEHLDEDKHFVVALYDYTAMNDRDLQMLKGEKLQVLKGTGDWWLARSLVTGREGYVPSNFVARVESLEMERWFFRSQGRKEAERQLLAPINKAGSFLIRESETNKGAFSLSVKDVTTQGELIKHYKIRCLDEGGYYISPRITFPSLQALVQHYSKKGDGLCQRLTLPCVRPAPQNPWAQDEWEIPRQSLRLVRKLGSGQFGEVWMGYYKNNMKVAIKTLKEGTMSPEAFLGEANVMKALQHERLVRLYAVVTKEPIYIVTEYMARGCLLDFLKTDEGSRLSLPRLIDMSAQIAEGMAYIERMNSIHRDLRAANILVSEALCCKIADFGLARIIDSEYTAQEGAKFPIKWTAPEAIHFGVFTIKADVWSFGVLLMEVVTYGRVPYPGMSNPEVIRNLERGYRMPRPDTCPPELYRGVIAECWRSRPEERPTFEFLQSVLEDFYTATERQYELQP
Tyrosine-protein kinase CSK, sequence (P41240 whole entry): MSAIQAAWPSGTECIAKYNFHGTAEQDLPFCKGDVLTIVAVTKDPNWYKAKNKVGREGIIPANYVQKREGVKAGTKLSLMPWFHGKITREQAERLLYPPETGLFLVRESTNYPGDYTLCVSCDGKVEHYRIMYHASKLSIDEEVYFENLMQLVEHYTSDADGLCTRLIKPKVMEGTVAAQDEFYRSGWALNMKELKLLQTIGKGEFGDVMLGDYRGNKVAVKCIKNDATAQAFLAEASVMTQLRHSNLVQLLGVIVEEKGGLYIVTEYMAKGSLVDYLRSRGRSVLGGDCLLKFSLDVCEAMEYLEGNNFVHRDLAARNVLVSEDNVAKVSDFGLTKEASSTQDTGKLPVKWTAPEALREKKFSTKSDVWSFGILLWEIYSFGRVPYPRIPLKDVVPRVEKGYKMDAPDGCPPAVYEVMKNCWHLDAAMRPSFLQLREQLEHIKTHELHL
Cyclin-dependent kinase 14, sequence (O94921 whole entry, canonical isoform): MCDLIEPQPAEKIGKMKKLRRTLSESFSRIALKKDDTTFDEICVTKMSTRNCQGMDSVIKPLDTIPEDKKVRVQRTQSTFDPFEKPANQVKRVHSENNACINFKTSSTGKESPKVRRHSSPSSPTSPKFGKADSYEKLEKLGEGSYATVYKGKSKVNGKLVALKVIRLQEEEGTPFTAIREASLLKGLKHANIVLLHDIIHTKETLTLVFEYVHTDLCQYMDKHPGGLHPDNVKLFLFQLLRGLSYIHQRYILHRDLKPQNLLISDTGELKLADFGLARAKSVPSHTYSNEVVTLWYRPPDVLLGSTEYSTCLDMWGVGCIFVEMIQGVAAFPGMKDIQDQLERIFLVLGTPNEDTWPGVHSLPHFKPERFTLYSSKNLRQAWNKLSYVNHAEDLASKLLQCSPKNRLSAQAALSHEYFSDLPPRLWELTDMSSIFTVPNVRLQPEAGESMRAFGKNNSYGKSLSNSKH

Row | Compound | Kd [1] [µM] | Kd [2] [µM] | Kd [3] [µM] | Kd [4] [µM] | Kd [5] [µM] | Kd [6] [µM] | Kd [7] [µM] | Kd [8] [µM] | Kd [9] [µM]
1 | COCC(=O)NC/C=C/c1ccc2ncnc(Nc3ccc(Oc4ccc(C)nc4)c(C)c3)c2c1 [CP-724714] | > 10 | > 10 | > 10 | > 10 | > 10 | > 10 | > 10 | > 10 | > 10
2 | CCOc1cc2ncc(C#N)c(Nc3ccc(F)c(Cl)c3)c2cc1NC(=O)/C=C/CN(C)C [PELITINIB] | > 10 | > 10 | 2.7 | – | > 10 | 0.078 | 7.2 | > 10 | –
3 | NC(=O)c1ccc(-c2nc(-c3ccc4c(c3)OCO4)c(-c3ccccn3)[nH]2)cc1 [SB-431542] | > 10 | > 10 | > 10 | > 10 | > 10 | > 10 | > 10 | > 10 | > 10
4 | Nc1nc(Nc2ccc(S(N)(=O)=O)cc2)nn1C(=O)c1c(F)cccc1F [JNJ-7706621] | – | 1.2 | 0.026 | > 10 | 4.5 | > 10 | – | 3.6 | > 10
5 | Oc1ccc(-c2nc(-c3ccncc3)c(-c3ccc(F)cc3)[nH]2)cc1 [SB-202190] | – | > 10 | > 10 | > 10 | > 10 | > 10 | > 10 | > 10 | > 10
